Measured values taken from patent publication US6770673B1, “Therapeutic uses of arglabin in combination with other chemotherapy agents” (priority 1997, dated 2004).

Experiments:
Pliss lymphosarcoma = assay: Inhibition of tumor growth in implanted tumors; type: in vivo, rats
M-1 Sarcoma = assay: Inhibition of tumor growth in implanted tumors; type: in vivo, mice and rats
[1] = tested on: Alveolar Cancer of the liver; assay: Inhibition of tumor growth in implanted tumors; type: in vivo, mice and rats
Geren's carcinosarcoma = assay: Inhibition of tumor growth in implanted tumors; type: in vivo, mice and rats
Worker's carcinosarcoma = assay: Inhibition of tumor growth in implanted tumors; type: in vivo, mice and rats
Sarcoma-45 = assay: Inhibition of tumor growth in implanted tumors; type: in vivo, rats
[2] = tested on: Pliss Lymphosarcoma resistant to prospidine; assay: Inhibition of growth of resistant tumour strains; duration of life and metastasis; type: in vivo, rats
[3] = tested on: Sarcoma-45 resistant to 5-fluorouracil; assay: Inhibition of growth of resistant tumour strains; type: in vivo, rats
PC-1 = assay: Inhibition of tumor growth in implanted tumors; type: in vivo, mice and rats; conditions: dose 30 mg/kg
Leucemia P-388 = assay: Implanted leukemia, inhibition / survival; type: in vivo, mice and rats
immune system = assay: Indices of patients' immunity, rozette forming and phagocytosis methods (Table X); type: in vivo, human
Method: The indices of immune system were determined using rozette forming and phagocytosis methods. […] Eleven indices of cellular and humoral immunity were measured from each patient in order to evaluate immune status. The following indices were determined on 0.05 ml of peripheral blood: absolute and relative amount of T- and B-lymphocytes, amount of non-differentiated “zero” cells, adhesion and phagocyte activity of neutrophils, hemogram, level of serum immunoglobulins. Indices were determined before treatment, on days 2, 5 and 14 of treatment, and after treatment.
Mean values of immunological indices were evaluated with regression analysis. Functional conditions of the immune system were estimated using integral indices such as a mean intensity (correlation) expressed in relative units.

[4] = tested on: Sarcoma-45 resistant to sarcolysin; assay: Inhibition of growth of resistant tumour strains; type: in vivo, rats; conditions: dose 30 mg/kg
L-1210 = assay: Implanted leukemia, survival; type: in vivo, mice and rats; conditions: dose 30 mg/kg
[5] = tested on: Pliss Lymphosarcoma resistant to rubidomycin; assay: Inhibition of growth of resistant tumour strains; type: in vivo, rats; conditions: dose 30 mg/kg
Sarcoma-37 = assay: Inhibition of tumor growth in implanted tumors; type: in vivo, mice and rats; conditions: dose 2 mg/kg

## CC1=CCC23OC2(C)CCC2C(C)C(=O)OC2C13 (centres unmarked) [11,13-dihydroarglabin (16), 11,13 dihydroarglabin]
Pliss lymphosarcoma; dose 30 mg/kg
  Inhibition of Tumour Growth, % - Pliss lymphosarcoma: 68.0%
M-1 Sarcoma; dose 30 mg/kg
  Inhibition of Tumour Growth, % - M-1 Sarcoma: 65.5%
[1]; dose 30 mg/kg
  Inhibition of Tumour Growth, % - Alveolar Cancer of the liver: 68.7%
Geren's carcinosarcoma; dose 30 mg/kg
  Inhibition of Tumour Growth, % - Geren's carcinosarcoma: 84.4%
Worker's carcinosarcoma; dose 30 mg/kg
  Inhibition of Tumour Growth, % - Worker's carcinosarcoma: 46.4%
Sarcoma-45; dose 30 mg/kg
  Inhibition of Tumour Growth, % - Sarcoma-45: 64.1%

## C=C1C(=O)OC2C1CCC(C)(O)C1C3OC3C(C)(O)C21 (stereo not drawn) [Anobin (19), 2α,3α-epoxy-4α,10α-dioxy-5,7α(H), 60β(H)-guai-11(13)-en-6,12-olide]
Pliss lymphosarcoma; dose 20-30 mg/kg
  Inhibition of Tumour Growth, % - Pliss lymphosarcoma: 60.0%
[2]; dose 20-30 mg/kg
  Inhibition of Tumour Strains Growth, % - Resistant Forms - Pliss Lymphosarcoma to prospidine: 95%
Geren's carcinosarcoma; dose 20-30 mg/kg
  Inhibition of Tumour Growth, % - Geren's carcinosarcoma: 85%
[3]; dose 20-30 mg/kg
  Inhibition of Tumour Strains Growth, % - Resistant Forms - Sarcoma-45 to 5-fluorouracil: 13.2%

## C=C1C(=O)O[C@@H]2[C@H]3C(C)=CC[C@@]34O[C@@]4(C)CC[C@@H]12 [Arglabin (1), 1(R), 10(S)-epoxy-5(S), 6(S), 7(S)-guaia-3(4), 11(13)-diene-6,12-olide]
Pliss lymphosarcoma; dose 30 mg/kg
  Inhibition of Tumour Growth, % - Pliss lymphosarcoma: 57.6%
PC-1
  Inhibition of Tumour Growth, % - PC-1: 32.1%
M-1 Sarcoma; dose 30 mg/kg
  Inhibition of Tumour Growth, % - M-1 Sarcoma: 55.6%
Leucemia P-388; dose 30 mg/kg
  Leucemia P-388 PALT - increase in survival: +43.0%
Immune system; human, in vivo
  Adhesion, N/ph: 42.40 ± 1.72
  Non differentiated lymphocytes, %: 26.00 ± 2.21%
  T-lymphocytes, %: 52.00 ± 1.42%
Immune system; patients, hemogram, after treatment (before treatment 2.72 ± 0.71)
  Eosinophil: 3.35 ± 1.30
Immune system; patients, hemogram, after treatment (before treatment 4.72 ± 0.91)
  Neutrophils, %: 5.45 ± 0.79%
Immune system; patients, hemogram, after treatment (before treatment 5.28 ± 2.48)
  Monocytes: 4.45 ± 0.44
Immune system; patients, hemogram, after treatment (before treatment 25.52 ± 2.02)
  Lymphocytes: 23.15 ± 1.7
Immune system; patients, hemogram, after treatment (before treatment 61.68 ± 45.0)
  Segmentation nucleus: 63.05 ± 1.79
Immune system; patients, peripheral blood, after treatment (before treatment 0.29 ± 0.05)
  B-lymphocytes, absolute: 0.45 ± 0.07
Immune system; patients, peripheral blood, after treatment (before treatment 0.72 ± 0.08)
  T-lymphocytes, absolute: 1.14 ± 0.17
Immune system; patients, peripheral blood, after treatment (before treatment 1.69 ± 0.26)
  D-phag, abs: 2.32 ± 0.19
Immune system; patients, peripheral blood, after treatment (before treatment 5.97 ± 0.60)
  Leukocytes, 10^9/l: 9.14 ± 0.61 10^9/l
Immune system; patients, peripheral blood, after treatment (before treatment 10.48 ± 1.60)
  T suppressor, %: 10.50 ± 0.95%
Immune system; patients, peripheral blood, after treatment (before treatment 19.12 ± 1.02)
  B-lymphocytes, %: 18.50 ± 10.0%
Immune system; patients, peripheral blood, after treatment (before treatment 39.12 ± 1.25)
  T helper cells, %: 45.30 ± 1.26%
Immune system; patients, peripheral blood, after treatment (before treatment 41.36 ± 0.95)
  D-phag., %: 48.1 ± 0.93%
Immune system; patients, serum, after treatment (before treatment 1.36 ± 0.03)
  Immunoglobulins M: 1.53 ± 0.03 g/L
Immune system; patients, serum, after treatment (before treatment 1.48 ± 0.02)
  Immunoglobulins A: 1.97 ± 0.08 g/L
Immune system; patients, serum, after treatment (before treatment 14.33 ± 0.43)
  Immunoglobulins G: 17.91 ± 0.41 g/L
[1]; dose 30 mg/kg
  Inhibition of Tumour Growth, % - Alveolar Cancer of the liver: 32.1%
[4]
  Inhibition of Tumour Strains Growth, % - Resistant Forms - Sarcoma-45 to sarcolysin: 59.7%
[2]; dose 30 mg/kg
  Inhibition of Tumour Strains Growth, % - Resistant Forms - Pliss Lymphosarcoma to prospidine: 31.0%
Geren's carcinosarcoma; dose 30 mg/kg
  Inhibition of Tumour Growth, % - Geren's carcinosarcoma: 48.0%
L-1210
  L-1210 - increase in survival: +34.1%
[5]
  Inhibition of Tumour Strains Growth, % - Resistant Forms - Pliss Lymphosarcoma to rubidomycin: 44.1%
Worker's carcinosarcoma; dose 30 mg/kg
  Inhibition of Tumour Growth, % - Worker's carcinosarcoma: 41.1%
Sarcoma-45; dose 30 mg/kg
  Inhibition of Tumour Growth, % - Sarcoma-45: 23.0%

## COc1cc2c(c(OC)c1OC)-c1ccc(OC)c(=O)cc1[C@@H](NC(C)=O)CC2 [Colchicine, colchicine, reference compound]
Pliss lymphosarcoma; dose 2 mg/kg
  Inhibition of Tumour Growth, % - Pliss lymphosarcoma: 54.4%
M-1 Sarcoma; dose 2 mg/kg
  Inhibition of Tumour Growth, % - M-1 Sarcoma: 14.9%
Leucemia P-388; dose 2 mg/kg
  Inhibition of Tumour Growth, % - Leucemia P-388 PALT: 31.2%
Sarcoma-37
  Inhibition of Tumour Growth, % - Sarcoma-37: 36.7%
[1]; dose 2 mg/kg
  Inhibition of Tumour Growth, % - Alveolar Cancer of the liver: 29.1%
Geren's carcinosarcoma; dose 2 mg/kg
  Inhibition of Tumour Growth, % - Geren's carcinosarcoma: 32.4%
Worker's carcinosarcoma; dose 2 mg/kg
  Inhibition of Tumour Growth, % - Worker's carcinosarcoma: 30.1%
Sarcoma-45; dose 2 mg/kg
  Inhibition of Tumour Growth, % - Sarcoma-45: 23.4%

## C=C1C(=O)OC2C1CCC1(C)OC13CC(Br)C(C)(Br)C23 (centres unmarked) [Dibromoarglabin (5), 3,4 Dibromoarglabin]
Pliss lymphosarcoma; dose 50 mg/kg
  Inhibition of Tumour Growth, % - Pliss lymphosarcoma: 51.0%
Leucemia P-388; dose 50 mg/kg
  Inhibition of Tumour Growth, % - Leucemia P-388 PALT: 46.9%
[1]; dose 50 mg/kg
  Inhibition of Tumour Growth, % - Alveolar Cancer of the liver: 69.0%
Geren's carcinosarcoma; dose 50 mg/kg
  Inhibition of Tumour Growth, % - Geren's carcinosarcoma: 90.0%
[3]; dose 50 mg/kg
  Inhibition of Tumour Strains Growth, % - Resistant Forms - Sarcoma-45 to 5-fluorouracil: 46.3%
Worker's carcinosarcoma; dose 50 mg/kg
  Inhibition of Tumour Growth, % - Worker's carcinosarcoma: 17.1%
Sarcoma-45; dose 50 mg/kg
  Inhibition of Tumour Growth, % - Sarcoma-45: 74.2%
